Data published in the supplement of paper PMC10307832.

Key:
Experiment in all cases: relative viability (nuclei count vs DMSO), 5 days (fraction); higher = more cells survive
[1] = compound: C1CC(C1)(C(=O)O)C(=O)O.[NH2-].[NH2-].[Pt+2] [Carboplatin] + N=C(N)NC(=N)NCCc1ccccc1 [Phenformin] (partner 250 µM)
How it was run: (§1)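 A single step with final 0.05% Triton X-100, 1% formaldehyde and 1 ug/ml Hoechst fixed the cells and stained nuclei 5 days after treatment. Lung cancer cell lines in 1536-well plates had been treated by pin tool the day after seeding with one drug alone or a fixed anchor-drug dose plus five library-drug doses (not always all listed) in √10 steps, and nuclei were counted on 4× images. Relative viability is the ratio of nuclei in treated wells to nuclei in vehicle wells, taken as the median of duplicate plates.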

[2] = compound: CC[C@H](C)N1C=C(C2=C(C=C(C=C21)C3=CN=C(C=C3)N4CCNCC4)C(=O)NCC5=C(C=C(NC5=O)C)C)C [GSK126] + C[C@@H](Oc1cc(-c2cnn(C3CCNCC3)c2)cnc1N)c1c(Cl)ccc(F)c1Cl [Crizotinib] (partner 1 µM)
How it was run: as §1

[3] = compound: NS(=O)(=O)OC[C@@H]1C[C@@H](n2ccc3c(N[C@H]4CCc5ccccc54)ncnc32)C[C@@H]1O [MLN4924] + CS(=O)(=O)CCNCc1ccc(-c2ccc3ncnc(Nc4ccc(OCc5cccc(F)c5)c(Cl)c4)c3c2)o1 [Lapatinib] (partner 2 µM)
How it was run: as §1

[4] = compound: CC[C@H](C)N1C=C(C2=C(C=C(C=C21)C3=CN=C(C=C3)N4CCNCC4)C(=O)NCC5=C(C=C(NC5=O)C)C)C [GSK126] + CCNC(=O)c1noc(-c2cc(C(C)C)c(O)cc2O)c1-c1ccc(CN2CCOCC2)cc1 [Luminespib] (partner 0.01 µM)
How it was run: as §1

| Cell Line | relative viability ([1]; first compound 0.08 µM) | relative viability ([1]; first compound 0.253 µM) | relative viability ([1]; first compound 0.8 µM) | relative viability ([1]; first compound 2.53 µM) | relative viability ([1]; first compound 8 µM) | relative viability ([2]; first compound 0.08 µM) | relative viability ([2]; first compound 0.253 µM) | relative viability ([2]; first compound 0.8 µM) | relative viability ([2]; first compound 2.53 µM) | relative viability ([2]; first compound 8 µM) | relative viability ([3]; first compound 0.04 µM) | relative viability ([3]; first compound 0.1265 µM) | relative viability ([3]; first compound 0.4 µM) | relative viability ([3]; first compound 1.265 µM) | relative viability ([3]; first compound 4 µM) | relative viability ([4]; first compound 0.08 µM) | relative viability ([4]; first compound 0.253 µM) | relative viability ([4]; first compound 0.8 µM) | relative viability ([4]; first compound 2.53 µM) | relative viability ([4]; first compound 8 µM) |
| --- | --- | --- | --- | --- | --- | --- | --- | --- | --- | --- | --- | --- | --- | --- | --- | --- | --- | --- | --- | --- |
| LXF-289 | 0.566 | 0.584 | 0.519 | 0.539 | 0.502 | 0.821 | 0.786 | 0.799 | 0.739 | 0.8 | 0.804 | 0.682 | 0.416 | 0.184 | 0.15 | 0.736 | 0.652 | 0.574 | 0.661 | 0.747 |
| NCI-H23 | 0.824 | 0.753 | 0.768 | 0.727 | 0.714 | 0.662 | 0.486 | 0.485 | 0.523 | 0.653 | 0.282 | 0.232 | 0.202 | 0.125 | 0.169 | 0.224 | 0.17 | 0.257 | 0.226 | 0.208 |
| NCI-H322M | 0.884 | 0.738 | 0.775 | 0.74 | 0.712 | 0.965 | 0.887 | 0.833 | 1.03 | 0.873 | 0.796 | 1.01 | 1.19 | 0.301 | 0.285 | 0.822 | 0.845 | 0.85 | 0.978 | 0.834 |
| NCI-H358 | 0.426 | 0.418 | 0.395 | 0.431 | 0.334 | 0.733 | 0.577 | 0.667 | 0.608 | 0.395 | 0.585 | 0.654 | 0.345 | 0.25 | 0.236 | 0.39 | 0.382 | 0.366 | 0.422 | 0.283 |
| NCI-H460 | 0.548 | 0.507 | 0.504 | 0.404 | 0.122 | 1.13 | 0.929 | 0.811 | 0.9 | 0.875 | 0.657 | 0.0947 | 0.0407 | 0.016 | 0.0144 | 0.0467 | 0.0392 | 0.0346 | 0.0287 | 0.0416 |
| NCI-H520 | 0.677 | 0.595 | 0.725 | 0.585 | 0.54 | 0.885 | 0.62 | 0.644 | 0.747 | 0.642 | 0.594 | 0.437 | 0.323 | 0.17 | 0.162 | 0.22 | 0.221 | 0.236 | 0.231 | 0.237 |
| NCI-H596 | 0.871 | 0.767 | 0.768 | 0.638 | 0.67 | 1.04 | 0.98 | 0.863 | 1.06 | 0.891 | 1.1 | 1.05 | 0.438 | 0.397 | 0.38 | 1.11 | 0.319 | 0.277 | 0.263 | 0.219 |
| NCI-H647 | 0.555 | 0.66 | 0.422 | 0.55 | 0.452 | 1.17 | 1.04 | 0.96 | 1.18 | 0.986 | 0.817 | 0.539 | 0.0888 | 0.0473 | 0.0818 | 0.358 | 0.193 | 0.144 | 0.202 | 0.124 |
| NCI-H650 | 0.495 | 0.451 | 0.398 | 0.428 | 0.398 | 0.912 | 0.741 | 0.658 | 0.755 | 0.594 | 0.492 | 0.543 | 0.26 | 0.166 | 0.169 | 0.92 | 0.787 | 0.744 | 0.834 | 0.876 |
| NCI-H661 | 0.249 | 0.286 | 0.259 | 0.276 | 0.301 | 0.924 | 1.04 | 0.967 | 0.787 | 0.787 | 0.538 | 0.632 | 0.499 | 0.228 | 0.28 | 0.908 | 0.884 | 0.905 | 0.873 | 0.944 |
| NCI-H727 | 0.504 | 0.652 | 0.454 | 0.497 | 0.365 | 0.923 | 0.755 | 0.806 | 0.836 | 0.815 | 0.692 | 0.704 | 0.352 | 0.24 | 0.192 | 0.482 | 0.375 | 0.421 | 0.345 | 0.336 |
| NCI-H838 | 0.707 | 0.587 | 0.603 | 0.601 | 0.603 | 0.798 | 0.856 | 0.834 | 0.772 | 0.752 | 0.754 | 0.273 | 0.257 | 0.126 | 0.148 | 0.39 | 0.319 | 0.357 | 0.302 | 0.34 |
| NCI-H1355 | 0.524 | 0.478 | 0.465 | 0.405 | 0.451 | 1.16 | 1.14 | 0.981 | 1.06 | 1.02 | 0.952 | 1.02 | 0.64 | 0.181 | 0.166 | 0.783 | 0.753 | 0.777 | 0.881 | 0.806 |
| NCI-H1437 | 0.29 | 0.303 | 0.294 | 0.301 | 0.299 | 0.99 | 0.914 | 0.879 | 0.797 | 0.794 | 0.79 | 0.656 | 0.268 | 0.119 | 0.1 | 1.09 | 1.07 | 1.04 | 1.11 | 1.06 |
| NCI-H1563 | 0.691 | 0.668 | 0.672 | 0.7 | 0.631 | 0.922 | 0.755 | 0.848 | 0.78 | 0.718 | 1.38 | 0.759 | 0.627 | 0.485 | 0.61 | 0.546 | 0.491 | 0.535 | 0.514 | 0.505 |
